Data on 2 compounds can be found in PMC2674587 (BMC Immunology, 2009).

pIC50: −log10 of the molar value. Like-named read-outs stand apart in the source and are kept apart here.

The target of one test is Prolyl endopeptidase. Particulars: read-out: does not inhibit Prolyl endopeptidase; cited from earlier work.
For a further test, the target named is Amino peptidase P. Particulars: read-out: does not inhibit Amino peptidase P; cited from earlier work.
Test [1] has as its target T1, hDPP-9 (Homo sapiens, UniProt Q86TI2). Set-up: method as in PMID 16186403, PMID 16731832. Particulars: read-out: does not inhibit DPP-9 at; cited from earlier work.
The test system of test [2] is Fibroblast activation protein. Particulars: read-out: does not inhibit Fibroblast activation protein; cited from earlier work.
The target in another test is Prolidase. Particulars: read-out: does not inhibit Prolidase; cited from earlier work.
For test [3], the target named is T1, hDPP-9. Kind of test: DPP-9 enzyme inhibition. The test is classed as biochemical.
The target of a further test is Proline dipeptidase. Particulars: read-out: does not inhibit Proline dipeptidase; cited from earlier work.
The test system of test [4] is T cell-dependent antibody responses to NP-CGG. Kind of test: T cell-dependent antibody responses to NP-CGG (ELISA titers, altered ligand density ELISA). It is filed as in vivo, C57BL/6 mice. Particulars: mice on chow ~400 mg/kg, immunized with NP-CGG. Here is the method: Mice were immunized i.p. with 100 μg of NP-CGG in alum for the primary immunization, and 100 μg of NP-CGG in PBS i.p. for the secondary immunization. Mice were bled via the retro orbital sinus at indicated times and the levels of anti-NP and CGG antibodies and their isotypes were determined by ELISA as described previously. Briefly, mouse serum antibodies were immobilized onto 96-well plates coated with NP-BSA or CGG and detected with biotin-conjugated anti-mouse immunoglobulins. […] Relative affinities of serum antibodies were evaluated by using altered ligand density ELISA as described earlier.

The next test concerns the target hDPP-2 (Homo sapiens, UniProt Q9UHL4). The test is described as follows: DPP-2 enzyme inhibition. It is filed as biochemical.
The test system of test [5] is H-Y+ target cells (male splenocytes). Kind of test: In vivo cytotoxicity (CTL) assay against H-Y antigen. Set-up: species or system C57BL/6 mice. Particulars: for killing of male cells (CD8 T cell mediated): female mice primed and boosted with male splenocytes, CFSE-labeled targets, FACS, n = 8. Here is the method: C57BL/6 female and male mice, age 8 ~10 weeks, were used for in vivo cytotoxicity assays. Female mice were immunized i.p. with syngeneic C57BL/6 male splenocytes (1 × 10^7 in 100 μl PBS) at day 0 and boosted at day 10 to generate anti-H-Y cytotoxic T cells. The in vivo CTL assay was performed as described earlier with some modifications Target cells were prepared and adoptively transferred to recipient female mice at day 18 post priming and specific killing of target H-Y^+ cells was analyzed at day 19. Briefly, male and female C57BL/6 naïve splenocytes were isolated and depleted of erythrocyte with RBC lysis buffer (Sigma-Aldrich, St. Louis, MO, USA). The splenocytes were washed 1× with 10% FBS RPMI 1640 and 2× with PBS. The cell densities were adjusted to 2×10^7 cells/ml. Male splenocytes were labeled with a high concentration (5 μM) of 5,6-carboxy-fluorescein succinimdyl ester (CFSE, Molecular Probes, Eugene, OR, USA), and the female splenocyte were labeled with low CFSE (0.5 μM). CFSE labeling was carried out by incubating 2 × 10^7 cells/ml in PBS with CFSE at 37°C in a 5% CO2 incubator for 10 min and quenched by adding 10% FBS RPMI to a final volume of 50 ml. Cells were washed 1× with 10%FBS RPMI and 2× with PBS to remove free CFSE. Male and female splenocytes were mixed 1:1 in PBS for the adoptive transfer. 10^6 cells in 200 μl PBS were injected into recipient female mice via tail vein injection. Similar amounts of cell were injected into the control unimmunized female mice. Spleens from the recipient mice were harvested after 16 hr, and splenocytes were analyzed for specific killing of H-Y^+ target cells by FACS. At least 5,000 CFSE positive cells were analyzed. The recovery and percent killing of the CFSE-labeled targets were calculated as follows: […]

T1 sequence (Q86TI2 whole entry): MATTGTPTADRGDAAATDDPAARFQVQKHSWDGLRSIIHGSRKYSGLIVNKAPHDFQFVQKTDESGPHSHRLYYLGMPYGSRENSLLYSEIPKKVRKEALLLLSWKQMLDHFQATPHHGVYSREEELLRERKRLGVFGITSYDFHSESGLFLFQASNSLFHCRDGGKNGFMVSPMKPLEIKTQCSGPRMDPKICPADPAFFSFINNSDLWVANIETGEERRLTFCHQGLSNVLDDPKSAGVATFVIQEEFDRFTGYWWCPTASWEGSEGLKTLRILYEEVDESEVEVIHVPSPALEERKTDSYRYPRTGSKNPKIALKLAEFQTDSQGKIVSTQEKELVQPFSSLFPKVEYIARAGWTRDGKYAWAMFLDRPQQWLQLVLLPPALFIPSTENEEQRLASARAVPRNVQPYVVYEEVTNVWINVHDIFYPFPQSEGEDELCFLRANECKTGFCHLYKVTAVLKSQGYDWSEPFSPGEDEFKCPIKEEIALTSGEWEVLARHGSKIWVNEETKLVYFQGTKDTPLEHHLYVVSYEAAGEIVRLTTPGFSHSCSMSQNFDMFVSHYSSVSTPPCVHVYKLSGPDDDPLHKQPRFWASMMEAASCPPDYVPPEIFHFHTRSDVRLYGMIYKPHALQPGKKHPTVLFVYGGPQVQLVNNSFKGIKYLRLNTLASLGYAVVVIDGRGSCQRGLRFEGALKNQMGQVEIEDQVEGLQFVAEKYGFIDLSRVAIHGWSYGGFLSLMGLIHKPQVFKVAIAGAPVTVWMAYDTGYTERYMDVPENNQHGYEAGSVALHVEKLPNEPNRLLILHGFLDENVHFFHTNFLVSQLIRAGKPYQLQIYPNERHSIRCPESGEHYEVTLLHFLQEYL

In the case of `N[C@@H](CC(=O)N1CCn2c(nnc2C(F)(F)F)C1)Cc1cc(F)ccc1F` [Des-flurositagliptin, des-fluro sitagliptin], the pIC50 (on Prolyl endopeptidase; on Amino peptidase P; on hDPP-9 [1]; in test [2]; on Prolidase; against hDPP-9 [3]) was under 5.00 in each case. The pIC50 at Proline dipeptidase and against hDPP-2 was under 5.00 in each case. Besides, the “titers of anti-CGG IgG1 and other isotypes, drug treated vs control animals” value in [4] is on record as “similar”. For the same compound, the “total anti-NP response as measured by λ-bearing and G1 isotype” value in [4] (primary and secondary response vs control) was “unaltered”. Besides, the “killing of male cells (CD8 T cell mediated)” value in [5] is listed as ~ 67%. The “CD8 T cell cytotoxicity in comparison to the wild type animals” value in test [5] (female mice primed with male cells, compound in chow throughout) is “equivalent cytotoxicity”.

For the compound `C=CC[C@@H]1/C=C(\C)C[C@H](C)C[C@H](OC)[C@H]2O[C@@](O)(C(=O)C(=O)N3CCCC[C@H]3C(=O)O[C@H](/C(C)=C/[C@@H]3CC[C@@H](O)[C@H](OC)C3)[C@H](C)[C@@H](O)CC1=O)[C@H](C)C[C@@H]2OC` [FK506], the “killing of male cells (CD8 T cell mediated)” value in test [5] is on record as 40%.
